Like-named read-outs stand apart in the source and are kept apart here.
What was measured:
[1] = biological target: NUDT5 and the respective E3 ligase (Homo sapiens, UniProt P40337+Q9UKK9); assay: NanoBRET ternary complex formation assay NUDT5 and the respective E3 ligase (VHL or CRBN) in HEK293 cells; assay type: cell-based; conditions: for Ternary complex formation below 1 µM (20 h): HEK293, 20 h; for Ternary complex formation below 1 µM (4 h): HEK293, 4 h
Description: NanoBRET ternary complex assays were performed following the manufacturer’s instructions (Promega). […] After 4 h or 20 h of incubation, a mix of substrate in assay medium was added to each well. Donor and acceptor signals were measured in a PHERAstar FSX or FS plate reader and analyzed by GraphPad Prism (v.9 or v.10). The acceptor/donor ratio was calculated, the no ligand background signal was subtracted, and multiplied by 1000 to yield mBRET units. Data were then normalized to DMSO.

NUDT5 = NUDT5 (Homo sapiens, UniProt Q9UKK9); assay: NanoBRET NUDT5 target engagement (TE) assay in HEK293 cells; assay type: cell-based; parameters: expressed in transfected cells; host or cells: HEK293; conditions: HEK293, 4 h
[2] = read-out: EC50 (nM) TE (4h), Supplementary Table 3

Chain of NUDT5 and the respective E3 ligase (P40337 whole entry, one chain of several): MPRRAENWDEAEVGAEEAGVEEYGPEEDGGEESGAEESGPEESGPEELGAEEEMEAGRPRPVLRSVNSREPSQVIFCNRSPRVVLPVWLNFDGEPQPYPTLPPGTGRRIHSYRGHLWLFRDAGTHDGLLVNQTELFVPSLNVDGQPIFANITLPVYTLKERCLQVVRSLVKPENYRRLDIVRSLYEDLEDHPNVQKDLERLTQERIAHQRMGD

Ternary complex formation below 1 µM (20 h) ([1]; Supplementary Table 2) | Ternary complex formation below 1 µM (4 h) ([1]; Supplementary Table 2) | Compound | other results
No | No | Cn1c(=O)c2c(nc(N3CCN(C(=O)CCCCCCOc4cccc5c4C(=O)N(C4CCC(=O)NC4=O)C5=O)CC3)n2Cc2nnc(-c3ccc(Cl)c(Cl)c3)o2)n(C)c1=O (stereo not drawn) [ASM136] | –
No | – | Cn1c(=O)c2c(nc(N3CCN(C(=O)CCCCNC(=O)COc4cccc5c4C(=O)N(C4CCC(=O)NC4=O)C5=O)CC3)n2Cc2nnc(-c3ccc(Cl)c(Cl)c3)o2)n(C)c1=O (stereo not drawn) [ASM57] | –
Yes | Yes | Cn1c(=O)c2c(nc(N3CCN(C(=O)CCCCNc4cccc5c4C(=O)N(C4CCC(=O)NC4=O)C5=O)CC3)n2Cc2nnc(-c3ccc(Cl)c(Cl)c3)o2)n(C)c1=O (stereo not drawn) [ASM124] | –
Yes | Yes | Cn1c(=O)c2c(nc(N3CCN(C(=O)CCCCCCCCOc4cccc5c4C(=O)N(C4CCC(=O)NC4=O)C5=O)CC3)n2Cc2nnc(-c3ccc(Cl)c(Cl)c3)o2)n(C)c1=O (stereo not drawn) [ASM135] | –
Yes | – | Cn1c(=O)c2c(nc(N3CCN(C(=O)CCCCCCNc4cccc5c4C(=O)N(C4CCC(=O)NC4=O)C5=O)CC3)n2Cc2nnc(-c3ccc(Cl)c(Cl)c3)o2)n(C)c1=O (stereo not drawn) [ASM84] | –
Yes | Yes | Cn1c(=O)c2c(nc(N3CCN(C(=O)CCCCCCCCNc4cccc5c4C(=O)N(C4CCC(=O)NC4=O)C5=O)CC3)n2Cc2nnc(-c3ccc(Cl)c(Cl)c3)o2)n(C)c1=O (stereo not drawn) [ASM133] | –
Yes | – | Cn1c(=O)c2c(nc(N3CCN(C(=O)CCOCCOCCNc4cccc5c4C(=O)N(C4CCC(=O)NC4=O)C5=O)CC3)n2Cc2nnc(-c3ccc(Cl)c(Cl)c3)o2)n(C)c1=O (stereo not drawn) [ASM68] | –
Yes | Yes | Cn1c(=O)c2c(nc(N3CCN(C(=O)CCCCCCCNc4cccc5c4C(=O)N(C4CCC(=O)NC4=O)C5=O)CC3)n2Cc2nnc(-c3ccc(Cl)c(Cl)c3)o2)n(C)c1=O (stereo not drawn) [ASM134] | –

Second part, the compound before the results:

Compound | Ternary complex formation below 1 µM (20 h) ([1]; Supplementary Table 2) | Ternary complex formation below 1 µM (4 h) ([1]; Supplementary Table 2) | other results
Cc1ncsc1-c1ccc(CNC(=O)C2CC(O)CN2C(=O)C(NC(=O)COCCOCCCCCCC(=O)N2CCN(c3nc4c(c(=O)n(C)c(=O)n4C)n3Cc3nnc(-c4ccc(Cl)c(Cl)c4)o3)CC2)C(C)(C)C)cc1 (stereo not drawn) [ASM076] | No | – | EC50 (NUDT5; read-out: EC50 (nM) TE (4h), Supplementary Table 2): 2000 nM
Cc1ncsc1-c1ccc(CNC(=O)C2CC(O)CN2C(=O)C(NC(=O)CCOCCOCCOCCC(=O)N2CCN(c3nc4c(c(=O)n(C)c(=O)n4C)n3Cc3nnc(-c4ccc(Cl)c(Cl)c4)o3)CC2)C(C)(C)C)cc1 (stereo not drawn) [ASM131] | No | No | –
Cn1c(=O)c2c(nc(N3CCN(CC4CCN(c5cc6c(cc5F)C(=O)N(C5CCC(=O)NC5=O)C6=O)CC4)CC3)n2Cc2nnc(-c3ccc(Cl)c(Cl)c3)o2)n(C)c1=O (stereo not drawn) [ASM71] | – | – | Ternary complex formation below 1 µM (20 h) ([1]; Supplementary Table 3): No; EC50 (NUDT5; [2]): 17 nM
Nc1ncnc2c1c(-c1ccc(Oc3ccccc3)cc1)nn2[C@@H]1CCCN(C(=O)c2cn(CCOCCOCCOCCNc3cccc4c3C(=O)N(C3CCC(=O)NC3=O)C4=O)nn2)C1 (stereo partly drawn) [Compound P13I1, reference compound] | – | – | Ternary complex formation below 1 µM (20 h) ([1]; Supplementary Table 1): No; EC50 (NUDT5; read-out: EC50 (µM), TE 4h, Supplementary Table 1): 8900 nM
Cn1c(=O)c2c(nc(N3CCN(CC4CCN(c5cccc6c5C(=O)N(C5CCC(=O)NC5=O)C6=O)CC4)CC3)n2Cc2nnc(-c3ccc(Cl)c(Cl)c3)o2)n(C)c1=O (stereo not drawn) [ASM110] | – | – | Ternary complex formation below 1 µM (20 h) ([1]; Supplementary Table 3): No; EC50 (NUDT5; [2]): 61 nM
Cn1c(=O)c2c(nc(N3CCN(CC4CCN(c5ccc6c(c5)C(=O)N(C5CCC(=O)NC5=O)C6=O)CC4)CC3)n2Cc2nnc(-c3ccc(Cl)c(Cl)c3)o2)n(C)c1=O (stereo not drawn) [ASM70] | – | – | Ternary complex formation below 1 µM (20 h) ([1]; Supplementary Table 3): Yes; EC50 (NUDT5; [2]): 42 nM
Cn1c(=O)c2c(nc(N3CCN(CC4CCN(c5ccc6c(c5)C(=O)N(C5CCC(=O)NC5=O)C6=O)C4)CC3)n2Cc2nnc(-c3ccc(Cl)c(Cl)c3)o2)n(C)c1=O (stereo not drawn) [ASM105] | – | – | Ternary complex formation below 1 µM (20 h) ([1]; Supplementary Table 3): No; EC50 (NUDT5; [2]): 103 nM

Reference: PMC13462928 (Nature Communications, 2026)
